The values that follow come from patent US20260028354A1, “TETRAHYDRONAPHTHALENE DERIVATIVES AS ESTROGEN RECEPTOR DEGRADERS” (REGENT OF THE UNIVERSITY OF MICHIGAN, priority 2022, published 2026).

Where two headings read alike, the source gives them in different places.

Experiment [1] is described as follows: Cell growth assay (WST-8) for "B" compounds. It is filed as cell-based. Particulars: T47D, read-out: Cell growth Inhibition in T47D cell line IC50. The method, boiled down: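 Four-day compound exposure of cells plated at 1500/well the day before. Read-out is WST-8 (10%, 2.5 h, 37 °C) absorbance at 450 nm, normalized to vehicle control over three independent repeats.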

In experiment [2] the target is ER (Homo sapiens (Human), UniProt P03372). The experiment in a line: In-cell western blot analysis of ER for "B" compounds. The experiment is classed as cell-based. Particulars: 16 hours, read-out: ICW DC50. The gist of the method: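 ER levels given as a percentage of untreated/DMSO-treated wells (100%). Detection used primary antibodies for 2 h at room temperature followed by 680 and 800 nm fluorescent secondaries at 1:1000 for 1 h, read by LI-COR imaging.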
Sequence of ER (P03372 whole entry): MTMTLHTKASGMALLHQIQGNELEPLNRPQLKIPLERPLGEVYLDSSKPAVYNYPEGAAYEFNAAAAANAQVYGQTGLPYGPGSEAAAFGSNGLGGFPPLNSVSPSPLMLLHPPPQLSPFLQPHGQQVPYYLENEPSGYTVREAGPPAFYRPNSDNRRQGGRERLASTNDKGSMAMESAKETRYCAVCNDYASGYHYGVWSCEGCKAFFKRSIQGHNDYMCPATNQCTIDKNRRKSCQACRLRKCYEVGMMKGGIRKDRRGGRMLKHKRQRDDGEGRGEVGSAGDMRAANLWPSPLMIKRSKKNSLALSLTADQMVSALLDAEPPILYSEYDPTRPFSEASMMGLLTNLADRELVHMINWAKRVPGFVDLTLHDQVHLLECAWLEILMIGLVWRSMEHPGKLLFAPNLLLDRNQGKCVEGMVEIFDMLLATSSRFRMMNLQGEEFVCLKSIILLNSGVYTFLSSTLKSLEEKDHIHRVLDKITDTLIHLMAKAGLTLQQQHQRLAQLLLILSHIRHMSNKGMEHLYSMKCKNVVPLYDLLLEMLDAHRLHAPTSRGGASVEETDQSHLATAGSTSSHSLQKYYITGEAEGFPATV

Turning to `CN(CC1CCN(c2ccc([C@@H]3c4ccc(O)cc4CC[C@@H]3c3ccccc3)cc2)CC1)[C@H]1C[C@H]2COc3cc4c(cc3N2C1)CN(C1CCC(=O)NC1=O)C4=O` (stereo partly drawn) [Compound B310, 3-((2S,3aS)-2-(((1-(4-((1R,2S)-6-hydroxy-2-phenyl-1,2,3,4-tetrahydronaphthalen-1-yl)phenyl)piperidin-4-yl)methyl)(methyl)amino)-7-oxo-2,3,3a,4,7,9-hexahydro-1H,8H-pyrrolo[1′,2′:4,5][1,4]oxazino[2,3-f]isoindol-8-yl)piperidine-2,6-dione], the IC50 in experiment [1] (T47D cell line) is less than 1 nM. For the same molecule, the DC50 in experiment [2] is greater than 100 nM.
`O=C1CCC(N2Cc3c(ccc4c3OCC43CCN(C(=O)CN4CCC5(CC4)CN(c4ccc([C@@H]6c7ccc(O)cc7CC[C@@H]6c6ccccc6)cc4)C5)CC3)C2=O)C(=O)N1` (stereo partly drawn) [Compound B214, 3-(1′-(2-(2-(4-((1R,2S)-6-hydroxy-2-phenyl-1,2,3,4-tetrahydronaphthalen-1-yl)phenyl)-2,7-diazaspiro[3.5]nonan-7-yl)acctyl)-6-oxo-6,8-dihydro-2H,7H-spiro[furo[2,3-e]isoindole-3,4′-piperidin]-7-yl)piperidine-2,6-dione]: the IC50 in experiment [1] (T47D cell line) was less than 1 nM. Further, the DC50 in experiment [2] was less than 10 nM.
`O=C1CCC(N2Cc3c(ccc4c3OCC43CCN(CC4CCC5(CN(c6ccc([C@@H]7c8ccc(O)cc8CC[C@@H]7c7ccccc7)cc6)C5)OC4)CC3)C2=O)C(=O)N1` (stereo partly drawn) [Compound B335, 3-(1′-((2-(4-((1R,2S)-6-hydroxy-2-phenyl-1,2,3,4-tetrahydronaphthalen-1-yl)phenyl)-5-oxa-2-azaspiro[3.5]nonan-7-yl)methyl)-6-oxo-6,8-dihydro-2H,7H-spiro[furo[2,3-e]isoindole-3,4′-piperidin]-7-yl)piperidine-2,6-dione]: the IC50 in experiment [1] was less than 1 nM. Also, the DC50 in experiment [2] is 10 to 100 nM.
As for `O=C1CCC(N2Cc3cc4c(cc3C2=O)OC[C@@H]2CN(CC3CCC5(CCN(c6ccc([C@@H]7c8ccc(O)cc8CC[C@@H]7c7ccccc7)cc6)CC5)C3)CCN42)C(=O)N1` (stereo partly drawn) [Compound B363, 3-((4aS)-3-((8-(4-((1R,2S)-6-hydroxy-2-phenyl-1,2,3,4-tetrahydronaphthalen-1-yl)phenyl)-8-azaspiro[4.5]decan-2-yl)methyl)-8-oxo-1,2,3,4,4a,5,8,10-octahydro-9H-pyrazino[1′,2′:4,5][1,4]oxazino[2,3-f]isoindol-9-yl)piperidine-2,6-dione], the IC50 in experiment [1] (T47D cell line) was greater than 10 nM. Also, the DC50 in experiment [2] was in the range of 10 to 100 nM.
As to `O=C1CCC(N2Cc3cc4c(cc3C2=O)OC[C@@H]2CN(C(=O)CN3CC5(CCN(c6ccc([C@@H]7c8ccc(O)cc8CC[C@@H]7c7ccccc7)cc6)C5)C3)CCN42)C(=O)N1` (stereo partly drawn) [Compound B206, 3-((S)-3-(2-(6-(4-((1R,2S)-6-hydroxy-2-phenyl-1,2,3,4-tetrahydronaphthalen-1-yl)phenyl)-2,6-diazaspiro[3.4]octan-2-yl)acetyl)-8-oxo-1,2,3,4,4a,5,8,10-octahydro-9H-pyrazino[1′,2′:4,5][1,4]oxazino[2,3-f]isoindol-9-yl)piperidine-2,6-dione], in experiment [1] (T47D cell line), the IC50 is less than 1 nM. In addition, the DC50 in experiment [2] is less than 10 nM.
Regarding `O=C1CCC(N2Cc3c(ccc4c3OCC43CCN(CC4CCC5(CCN(c6ccc([C@@H]7c8ccc(O)cc8CC[C@@H]7c7ccccc7)cc6)CC5)O4)CC3)C2=O)C(=O)N1` (stereo partly drawn) [Compound B178, 3-(1′-((8-(4-((1R,2S)-6-hydroxy-2-phenyl-1,2,3,4-tetrahydronaphthalen-1-yl)phenyl)-1-oxa-8-azaspiro[4.5]decan-2-yl)methyl)-6-oxo-6,8-dihydro-2H,7H-spiro[furo[2,3-e]isoindole-3,4′-piperidin]-7-yl)piperidine-2,6-dione], the IC50 in experiment [1] was less than 1 nM. Further, in experiment [2], the DC50 was greater than 100 nM.
On the same counts, the results for `O=C1CCC(N2Cc3c(ccc4c3OCC43CCN(CC(=O)N4CC5(CCN(c6ccc([C@@H]7c8ccc(O)cc8CC[C@@H]7c7ccccc7)cc6)C5)C4)CC3)C2=O)C(=O)N1` (stereo partly drawn) [Compound B212, 3-(1′-(2-(6-(4-((1R,2S)-6-hydroxy-2-phenyl-1,2,3,4-tetrahydronaphthalen-1-yl)phenyl)-2,6-diazaspiro[3.4]octan-2-yl)-2-oxoethyl)-6-oxo-6,8-dihydro-2H,7H-spiro[furo[2,3-e]isoindole-3,4′-piperidin]-7-yl)piperidine-2,6-dione] are less than 1 nM and less than 10 nM.
Regarding `O=C1CCC(N2Cc3cc4c(cc3C2=O)OC[C@@H]2CN(CC(=O)N3CC5(C3)CN(c3ccc([C@@H]6c7ccc(O)cc7CC[C@@H]6c6ccccc6)cc3)C5)CCN42)C(=O)N1` (stereo partly drawn) [Compound B208, 3-((S)-3-(2-(6-(4-((1R,2S)-6-hydroxy-2-phenyl-1,2,3,4-tetrahydronaphthalen-1-yl)phenyl)-2,6-diazaspiro[3.3]heptan-2-yl)-2-oxoethyl)-8-oxo-1,2,3,4,4a,5,8,10-octahydro-9H-pyrazino[1′,2′:4,5][1,4]oxazino[2,3-f]isoindol-9-yl)piperidine-2,6-dione], the IC50 in experiment [1] (T47D cell line) is less than 1 nM. Besides, the DC50 in experiment [2] was less than 10 nM.
On the same counts, the results for `O=C1CCC(N2Cc3cc4c(cc3C2=O)OC[C@@H]2CN(CC(=O)N3CC5(CCN(c6ccc([C@@H]7c8ccc(O)cc8CC[C@@H]7c7ccccc7)cc6)CC5)C3)CCN42)C(=O)N1` (stereo partly drawn) [Compound B143, 3-((S)-3-(2-(7-(4-((1R,2S)-6-hydroxy-2-phenyl-1,2,3,4-tetrahydronaphthalen-1-yl)phenyl)-2,7-diazaspiro[3.5]nonan-2-yl)-2-oxoethyl)-8-oxo-1,2,3,4,4a,5,8,10-octahydro-9H-pyrazino[1′,2′: 4,5][1,4]oxazino[2,3-f]isoindol-9-yl)piperidine-2,6-dione] are less than 1 nM and less than 10 nM.
Consider `O=C1CCC(Nc2ccc(C3CCN(CC4COC5(CCN(c6ccc([C@@H]7c8ccc(O)cc8CC[C@@H]7c7ccccc7)cc6)CC5)OC4)CC3)cc2)C(=O)N1` (stereo partly drawn) [Compound B345, 3-((4-(1-((9-(4-((1R,2S)-6-hydroxy-2-phenyl-1,2,3,4-tetrahydronaphthalen-1-yl)phenyl)-1,5-dioxa-9-azaspiro[5.5]undecan-3-yl)methyl)piperidin-4-yl)phenyl)amino)piperidine-2,6-dione], for which the IC50 in experiment [1] (T47D cell line) was in the range of 1 to 10 nM. Besides, in experiment [2], the DC50 was greater than 100 nM.
With `O=C1CCC(N2Cc3cc4c(cc3C2=O)OC[C@@H]2CN(CC(=O)N3CCC5(CC3)CCN(c3ncc([C@@H]6c7ccc(O)cc7CC[C@@H]6c6ccccc6)cn3)CC5)CCN42)C(=O)N1` (mixture of isomers) [Compound B149, 3-((S)-3-(2-(9-(5-(cis-6-hydroxy-2-phenyl-1,2,3,4-tetrahydronaphthalen-1-yl)pyrimidin-2-yl)-3,9-diazaspiro[5.5]undecan-3-yl)-2-oxoethyl)-8-oxo-1,2,3,4,4a,5,8,10-octahydro-9H-pyrazino[1′,2′: 4,5][1,4]oxazino[2,3-f]isoindol-9-yl)piperidine-2,6-dione], the 50% inhibitory concentration (IC50) in experiment [1] is less than 1 nM. Also, in experiment [2], the DC50 lay in the range of 10 to 100 nM.
Turning to `O=C1CCC(N2Cc3c(ccc4c3OCC43CCN(C(=O)CN4CC5(CC(Nc6ccc([C@@H]7c8ccc(O)cc8CC[C@@H]7c7ccccc7)cc6)C5)C4)CC3)C2=O)C(=O)N1` (stereo partly drawn) [Compound B168, 3-(1′-(2-(6-((4-((1R,2S)-6-hydroxy-2-phenyl-1,2,3,4-tetrahydronaphthalen-1-yl)phenyl)amino)-2-azaspiro[3.3]heptan-2-yl)acetyl)-6-oxo-6,8-dihydro-2H,7H-spiro[furo[2,3-e]isoindole-3,4′-piperidin]-7-yl)piperidine-2,6-dione], the IC50 in experiment [1] (T47D cell line) is less than 1 nM. For the same molecule, the DC50 in experiment [2] is less than 10 nM.
As to `O=C1CC[C@H](N2Cc3c(ccc4c3OCC43CCN(C[C@@H]4CCC5(CCN(c6ccc([C@@H]7c8ccc(O)cc8CC[C@@H]7c7ccccc7)cc6)CC5)OC4)CC3)C2=O)C(=O)N1` [Compound B400, (S)-3-(1′-(((S)-9-(4-((1R,2S)-6-hydroxy-2-phenyl-1,2,3,4-tetrahydronaphthalen-1-yl)phenyl)-1-oxa-9-azaspiro[5.5]undecan-3-yl)methyl)-6-oxo-6,8-dihydro-2H,7H-spiro[furo[2,3-e]isoindole-3,4′-piperidin]-7-yl)piperidine-2,6-dione], the IC50 in experiment [1] is less than 1 nM. Moreover, the DC50 in experiment [2] was less than 10 nM.
Take `O=C1CCC(N2Cc3c(ccc4c3OC[C@H]3CN(CC5CC6(CCN(c7ccc([C@@H]8c9ccc(O)cc9CC[C@@H]8c8ccccc8)cc7)C6)C5)CCN43)C2=O)C(=O)N1` (stereo partly drawn) [Compound B232, 3-((R)-7-((6-(4-((1R,2S)-6-hydroxy-2-phenyl-1,2,3,4-tetrahydronaphthalen-1-yl)phenyl)-6-azaspiro[3.4]octan-2-yl)methyl)-1-oxo-1,3,5,5a,6,7,8,9-octahydro-2H-pyrazino[1′,2′:4,5][1,4]oxazino[2,3-e]isoindol-2-yl)piperidine-2,6-dione]: the concentration for half-maximal inhibition (IC50) in experiment [1] (T47D cell line) was 1 to 10 nM. Further, the DC50 in experiment [2] was greater than 100 nM.
The corresponding values for `O=C1CCC(N2Cc3cc4c(cc3C2=O)OC[C@@H]2CN(C(=O)CN3CCC5(CC3)CCN(c3ccc([C@@H]6c7ccc(O)cc7CC[C@@H]6c6ccccc6)cc3)CC5)CCN42)C(=O)N1` (stereo partly drawn) [Compound B146, 3-((S)-3-(2-(9-(4-((1R,2S)-6-hydroxy-2-phenyl-1,2,3,4-tetrahydronaphthalen-1-yl)phenyl)-3,9-diazaspiro[5.5]undecan-3-yl)acetyl)-8-oxo-1,2,3,4,4a,5,8,10-octahydro-9H-pyrazino[1′,2′:4,5][1,4]oxazino[2,3-f]isoindol-9-yl)piperidine-2,6-dione] are less than 1 nM and less than 10 nM.

For orientation: IC50 means the concentration needed to halve the response being measured.
